Assay results reported in US8492328B2, “Biomarkers and methods for determining sensitivity to insulin growth factor-1 receptor modulators” (Bristol-Myers Squibb Company, priority 2007, dated 2013).
“Also recorded” adds a separate entry of the source.

What was measured:
5838 = assay: In vitro cellular proliferation assay ([3H]-thymidine incorporation); type: cell-based, human; conditions: 5838 (Ewing)
Protocol: (§1) All pediatric sarcoma and neuroblastoma cell lines were obtained from Dr. Lee Helman at NIH. All cell lines were grown in RPMI medium supplemented with Glutamax (Gibco/Invitrogen #61870-036), 10% inactivated fetal bovine serum (Gibco/Invitrogen #16140-071), 10 mM Hepes, penicillin and streptomycin.
(§2) Cells were plated at an optimized density for each cell line per well in 96-well microtiter Falcon plates, incubated overnight, and then exposed to a serial dilution of drug. After 72 hours incubation with drug at 37° C., cells were pulsed with 4 μCi/ml [6-3H] thymidine (Amersham Pharmacia Biotech, UK) for 3 hours, trypsinized, harvested onto UniFilter-96, GF/B plates (PerkinElmer, Boston, Mass.) and scintillation was measured on a TopCount NXT (Packard, Conn.). Results were expressed as an IC50, which is the drug concentration required to inhibit cell proliferation by 50% to that of untreated control cells. The mean IC50 and standard deviation (SD) from multiple tests for each cell line were calculated.

H2052 = assay: as above; type: cell-based, human; conditions: H2052 (Melignant Pleural Mesothelioma)
Protocol: as §1, §2

H211 = assay: as above; type: cell-based, human; conditions: H211 (Melignant Pleural Mesothelioma)
Protocol: as §1, §2

H2595 = assay: as above; type: cell-based, human; conditions: H2595 (Melignant Pleural Mesothelioma)
Protocol: as §1, §2

H513 = assay: as above; type: cell-based, human; conditions: H513 (Melignant Pleural Mesothelioma)
Protocol: as §1, §2

HT1080/S = assay: as above; type: cell-based, human; conditions: HT1080/S (Fibrosarcoma)
Protocol: as §1, §2

HTB-92 = assay: as above; type: cell-based, human; conditions: HTB-92 (Liposarcoma)
Protocol: as §1, §2

IMR-32 = assay: as above; type: cell-based, human; conditions: IMR-32 (Neuroblastoma)
Protocol: as §1, §2

LAN-1 = assay: as above; type: cell-based, human; conditions: LAN-1 (Neuroblastoma)
Protocol: as §1, §2

ME = assay: as above; type: cell-based, human; conditions: ME (Rhabdomyosarcoma)
Protocol: as §1, §2

RDES = assay: as above; type: cell-based, human; conditions: RDES (Ewing)
Protocol: as §1, §2

Rh1 = assay: as above; type: cell-based, human; conditions: Rh1 (Rhabdomyosarcoma)
Protocol: as §1, §2

Rh36 = assay: as above; type: cell-based, human; conditions: Rh36 (Rhabdomyosarcoma)
Protocol: as §1, §2

Rh41 = assay: as above; type: cell-based, human; conditions: Rh41 (Rhabdomyosarcoma)
Protocol: as §1, §2

Rh4 = assay: as above; type: cell-based, human; conditions: Rh4 (Rhabdomyosarcoma)
Protocol: as §1, §2

SA-4 = assay: as above; type: cell-based, human; conditions: SA-4 (Liposarcoma)
Protocol: as §1, §2

SHSY5Y = assay: as above; type: cell-based, human; conditions: SHSY5Y (Neuroblastoma)
Protocol: as §1, §2

SK-LMS-1 = assay: as above; type: cell-based, human; conditions: SK-LMS-1 (Leiomyosarcoma)
Protocol: as §1, §2

SK-NAS = assay: as above; type: cell-based, human
Protocol: as §1, §2

SW-684 = assay: as above; type: cell-based, human; conditions: SW-684 (Fibrosarcoma)
Protocol: as §1, §2

TC71 = assay: as above; type: cell-based, human; conditions: TC71 (Ewing)
Protocol: as §1, §2

RD-1 cells = assay: In vitro cellular proliferation assay, parental sensitive RD-1; type: cell-based; conditions: Homo sapiens, RD1; sensitive parental RD-1 (RMS) cells
Protocol: as §1, §2
(§3) Acquired resistance to anti-cancer agents is a major clinical problem. […] In order to identify markers that may contribute to acquired resistance to the IGF1R inhibitor, global gene expression profiles for both parental RD1 and resistant RD1 were analyzed using Affymetrix gene chip. […]

RD1-Resist cells = assay: In vitro cellular proliferation assay, compound 1 acquired resistant RD1; type: cell-based; conditions: Homo sapiens
Protocol: as §1, §2, §3

Rh41 cells = assay: Gene expression profiling of cells with compound 1 treatment; type: cell-based, human
Rh36 cells = assay: Gene and protein expression profiling of cells with compound 1 treatment; type: cell-based, human; conditions: later time points, 36 and 72 hrs
[1] = Homo sapiens, 72 hours with drug, read-out: IC50

Cc1cc(N2CCOCC2)cc2[nH]c(-c3c(NC[C@@H](O)c4cccc(Cl)c4)cc[nH]c3=O)nc12 [Compound 1, (S)-4-(2-(3-chlorophenyl)-2-hydroxyethylamino)-3-(4-methyl-6-morpholino-1H-benzo[d]imidazol-2-yl)-pyridin-2(1-H)-one]
Sensitivity Classification 5838: S (“S” means sensitive) | IC50 5838; [1]: 172 nM | Sensitivity Classification (H2052): R (“R” means resistant to the corresponding compounds.) | IC50 (H2052; Homo sapiens, NCI-H2052, 72 hours with drug, read-out: IC50): 403 nM | Sensitivity Classification (H211): R (“R” means resistant to the corresponding compounds.) | IC50 (H211; Homo sapiens, NCI-H211, 72 hours with drug, read-out: IC50): 418 nM | Sensitivity Classification (H2595): R (“R” means resistant to the corresponding compounds.) | IC50 (H2595; Homo sapiens, NCI-H2595, 72 hours with drug, read-out: IC50): 5000 nM | Sensitivity Classification (H513): R (“R” means resistant to the corresponding compounds.) | IC50 (H513; [1]): 3120 nM | Sensitivity Classification (HT1080/S): R (“R” means resistant to the corresponding compounds.) | IC50 (HT1080/S; Homo sapiens, HT-1080, 72 hours with drug, read-out: IC50): 1410 nM | Sensitivity Classification (HTB-92): R (“R” means resistant to the corresponding compounds.) | IC50 (HTB-92; [1]): 584 nM | IC50 (IMR-32; [1]): 277 nM | Sensitivity Classification (IMR-32): S (“S” means sensitive) | IC50 (LAN-1; Homo sapiens, LAN1, 72 hours with drug, read-out: IC50): 136 nM | Sensitivity Classification (LAN-1): S (“S” means sensitive) | IC50 (ME; [1]): 163 nM | Sensitivity Classification (ME): S (“S” means sensitive) | IC50 (RDES; Homo sapiens, RD-ES, 72 hours with drug, read-out: IC50): 123 nM | Sensitivity Classification (RDES): S (“S” means sensitive) | IC50 (Rh1; Homo sapiens, RH-1, 72 hours with drug, read-out: IC50): 135 nM | Sensitivity Classification (Rh1): S (“S” means sensitive) | IC50 (Rh36; [1]): 1600 nM | Sensitivity Classification (Rh36): R (“R” means resistant to the corresponding compounds.) | IC50 (Rh41; [1]): 69 nM | Sensitivity Classification (Rh41): S (“S” means sensitive) | IC50 (Rh4; [1]): 27 nM | Sensitivity Classification (Rh4): S (“S” means sensitive) | IC50 (SA-4; [1]): 779 nM | Sensitivity Classification (SA-4): R (“R” means resistant to the corresponding compounds.) | IC50 (SHSY5Y; Homo sapiens, SH-SY5Y, 72 hours with drug, read-out: IC50): 149 nM | Sensitivity Classification (SHSY5Y): S (“S” means sensitive) | IC50 (SK-LMS-1; [1]): 500 nM | Sensitivity Classification (SK-LMS-1): R (“R” means resistant to the corresponding compounds.) | IC50 (SK-NAS; Homo sapiens, SK-N-AS, SK-NAS (Neuroblastoma), 72 hours with drug, read-out: IC50): 192 nM | sensitivity/resistance classification in words (SK-NAS; SK-NAS): resistant | Sensitivity Classification (SK-NAS; SK-NAS (Neuroblastoma)): S (“S” means sensitive) | IC50 (SW-684; Homo sapiens, SW684, 72 hours with drug, read-out: IC50): 5000 nM | Sensitivity Classification (SW-684): R (“R” means resistant to the corresponding compounds.) | IC50 (TC71; Homo sapiens, TC-71, 72 hours with drug, read-out: IC50): 119 nM | Sensitivity Classification (TC71): S (“S” means sensitive) | IC50 (RD-1 cells): 238 nM | IC50 (RD1-Resist cells): 2000 nM | IC50 (RD1-Resist cells; RD1, acquired resistant RD-1 cells): 2000 nM | Ki-67 expression (Rh41 cells; compound 1 treated cells): Remarkable but not complete decrease | expression of programmed cell death 4 (PDCD4) (Rh41 cells; sensitive Rh41 cells): up-regulated | expression level of survivin (Rh41 cells; sensitive Rh41 cells, especially at 36 and 72 hours): significantly reduced | genes with significant expression changes upon the drug treatment (Rh41 cells; sensitive cell Rh41): 30% | effect of drug on gene/protein expression (Rh36 cells): little to no effect; also recorded: little, to no effect
